According to patent US6767903B1, “New7α, 17α-bis-alkylated testosterone derivatives and their use in long-term therapy of androgen-dependent diseases” (Schering AG, priority 1998, dated 2004):
Where two headings read alike, the source gives them in different places.

System: human prostate cancer cell line LNCaP
Assay: Antiproliferation test with the human prostate cancer cell line (LNCaP)
Type: cell-based
Conditions: LNCaP cells; for IC50: growth stimulated by 0.1 nM R1881, 7 days, MTT readout, read-out: Antiandrogeneity IC50 in the presence of 0.1 nM of R1881; for Androgeneity at 1 μM: test compound at 1 μM, growth stimulation by 0.1 nM of R1881 was set = 100%
From the text: Antiproliferation Test with the Human Prostate Cancer Cell Line (LNCaP)
The human prostate cancer cell line LNCaP [American Type Culture Collection (ATCC)=Accession No.: CRL 1740; Horoszewicz et al., Cancer Research, 43 pp. 1809-18, 1983] was isolated from the lymph node metastasis of a prostate cancer patient. It expresses the androgen receptor and can be stimulated in growth by androgens. The androgen-mediated growth stimulation can be blocked by simultaneous administration of antiandrogens. The antiandrogenic active strength (IC50) of test compounds can be determined by dose-action correlations.
The cells are cultivated in RPMI 1640 medium with penicillin (10,000 units/l), streptomycin (100 mg/l), glutamine ([…]), 10% fetal calf serum and 0.1 nM of the synthetic androgen R1881 (Metribolone, Roussel).
Day 1: Sowing of the cells in a density of 5,000-6,000/100 μl/hole in 96-hole plates. Adding test compound (100 μl/hole doubly concentrated) to the culture medium with 0.2 nM of R1881 (yields 0.1 nM final concentration). Incubation of the cells for 72 or 96 hours at 37° C., 5% CO2, 90% relative atmospheric humidity. In the culture medium, the fetal calf serum is replaced by 5% activated carbon-treated (steroid-free) serum.
Day 3 or 4: Medium change: In each case in 50% of the medium, inclusive test compounds are replaced by fresh medium. Incubation of the cells for 96 or 72 hours at 37° C., 5% CO2, 90% relative atmospheric humity.
Day 7: Adding 25 μl of MTT solution per hole {MTT=(3[4,5-dimethylthiazol-2-yl]-2,5-diphenaltetrazolium bromide (thiazolyl blue}. Incubation is for 3 hours at 37° C., 5% CO2, 90% relative atmospheric humidity. After the removal of the supernatant, addition of 100 μl of DMSO per hole. Measurement of the optical density at […].
The antiandrogens OH-flutamide and casodex that are found in clinical practice were tested, as well as the compound EM-101 (N-butyl, N-methyl-11-(17′β-hydroxy-4′-androsten-3′-on-7′α-yl)undecanamide of WO 91/00732.

Row | Structure (SMILES) | IC50 (Homo sapiens, 168 h) [µM] | Androgeneity at 1 μM [%] | IC50 [µM]
1 | CC(O)(CS(=O)(=O)c1ccc(F)cc1)C(=O)Nc1ccc(C#N)c(C(F)(F)F)c1 (stereo not shown) [Casodex] | 0.44 | 7 | 
2 | CCCCN(C)C(=O)CCCCCCCCCC[C@@H]1CC2=CC(=O)CC[C@]2(C)[C@H]2CC[C@]3(C)[C@@H](O)CC[C@H]3[C@H]12 [EM-101, N-butyl, N-methyl-11-(17′β-hydroxy-4′-androsten-3′-on-7′α-yl)undecanamide] |  | 0 | 4.44
3 | CC12CCC(=O)C=C1CC(CCCCCCCCCC[S+]([O-])c1ccccc1)C1C2CCC2(C)C1CCC2(O)C(F)(F)C(F)(F)F (stereo not drawn) [Example 20, 17β-Hydroxy-17α-(1,1,2,2,2-pentafluoroethyl)-7α-[10-(phenylsulfinyl)decyl]androst-4-en-3-one] |  | 0 | 0.2
4 | C[C@]12CCC(=O)C=C1C[C@@H](CCCCCCCCCO)[C@@H]1[C@@H]2CC[C@@]2(C)[C@H]1CC[C@]2(C)O [Example 53, 17β-Hydroxy-7α-(9-hydroxynonyl)-17α-methylandrost-4-en-3-one] | 0.04 | 0 | 
5 | CC(C)(O)C(=O)Nc1ccc([N+](=O)[O-])c(C(F)(F)F)c1 [OH-flutamide] |  | 144 | > 10
